This is an account of results in PubChem BioAssay AID588571 (Sanford-Burnham Center for Chemical Genomics, 2011).

Calls of active or inactive are those of the source.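 How the source made its calls: active means mean IC50 at or below 20 µM; inactive means the rest.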

The assay concerns CHO-CHOP cells viability, ATPlite luminescence, 6 h. The experiment in a line: cytotoxicity in CHO-CHOP reporter cells, SAR follow-up, cytotoxicity control for UPR adaptive arm activator project, cell-based, 6 h exposure, ATPlite luminescence (AID 588571).
`O=C(Nc1ccc(Br)c(C(F)(F)F)c1)c1cc(-c2ccncc2)nc2ccccc12`: the IC50 is > 80 µM (inactive).

Regarding `O=C(Nc1ccc(Cl)cc1)c1cc(-c2ccncc2)nc2ccccc12`, the IC50 is 75.4 µM (inactive).

As to `Cc1ccc(NC(=O)c2cc(-c3ccncc3)nc3ccccc23)cc1`, the IC50 is > 80 µM (inactive).

As to `Cc1cc(Br)cc(NC(=O)c2cc(-c3ccncc3)nc3ccccc23)c1`, the IC50 was > 80 µM (inactive).

`Cc1nc(Nc2nc(-c3ccccc3)cc(=O)[nH]2)nc2ccccc12`: the IC50 was 60.1 µM (inactive).

As for `O=C(Nc1ccc(F)cc1)c1cc(-c2ccncc2)nc2ccccc12`, the IC50 was > 80 µM (inactive).

Consider `O=C(Nc1ccc(C(F)(F)F)cc1)c1cc(-c2ccncc2)nc2ccccc12`, for which the IC50 is 70.4 µM (inactive).

The IC50 is the concentration that inhibits the measured activity by half.
